Broadly, the IC50 is the concentration that gives 50% inhibition.

Molecules are shown by their SMILES.

Data set [1] relates to ^3 H-flunitrazepam binding sites (benzodiazepine receptors BZ-1 and BZ-2) in rat cortex. Put plainly: ^3 H-flunitrazepam competition binding, rat cortex. The following applies: for difference in binding affinity for two BZ receptors (BZ-1 and BZ-2): vs ^3 H-flunitrazepam, average; for populations of binding sites distinguished: unlabeled drug vs ^3 H-flunitrazepam. The method, then: (§1) Male Spraque-Sawley rats (200 to 250 gms) from Charles River Breeding Laboratories, Mass., were used to obtain brain tissue. Animals were decapitated and their brains removed. Synaptic membranes were obtained following the procedure disclosed in Life Sc., 35, 105 (1984). Cerebral cortex and cerebellum were dissected on ice and homogenized in 20 volumes of ice cold 0.32 M sucrose using a glass homogenizer fitted with a teflon pestle. The homogenates were then centrifuged at 48,000 X g for 10 min, and the resultant P2 pellets were washed twice by re-centrifugation in 50 mM Na/K phosphate buffered saline (pH 7.4). The washed pellets were pooled and then resuspended in the same buffer to a final concentration of 50 mg of original tissue weight/ml.
(§2) Total reaction mixture volume was 1 ml which included: (a) 100 μl of either ^3 H-flunitrazepam or ^3 H-2-oxo-quazepam (tritiated at the α-carbon of the trifluoroethyl substituent located at the #1 position), yielding a final concentration of 0.5 nM (b) 100 μl of various concentrations of competing drugs dissolved or suspended in 50 mM phosphate buffered saline (pH 7.4) containing 4 mg/ml methylcellulose (c) 800 μl of tissue homogenate diluted such that a total of 5 mg of tissue was present in the final reaction mixture. In each competition experiment 25 to 30 concentrations of drug were used to obtain a complete dose response curve.
(§3) Incubations were carried out at 0° C. for 90 minutes. Samples were then filtered under vacuum through 25 mm diameter Whatman GF/B filters on a Millipore 1225 Sampling Manifold and quickly washed with 3×5 ml of ice-cold PBS buffer. Filter-bound radioactivity was quantified through liquid scintillation counting following overnight solubilization of the receptor-radioligand complex in "Scintosol" scintillation cocktail (Isolab, Inc.).
(§4) Compound assisted curve fitting was conducted on an Apple IIe computer using a program described in Br. J. Pharmacol., 80, 582P (1983) and Trends in Pharmaceutical Sci., 5, 47, (1984). Enhancements were made to the program to allow disk storage of data and printing of the program to allow disk storage of data and printing of the graphics display. The program determines whether the results from individual competition experiments are best interpreted on the basis of a 1 or 2 site model and also provides the most probable proportions of radioligand bound to each of the sites.
(§5) Selection among models was made by comparing the sum of squares residual values for the best single and 2-site models and determining through a partial F-test evaluation whether 2-site modelling produced a statistically meaningful (P<0.05) improvement in fit as described in Anal. Biochem., 107, 220 (1980). If not, the best single site model was considered the model of choice.

Data set [2] deals with benzodiazepine sites (BZ-1 receptors) in rat cortex (Rattus norvegicus, UniProt P18508+P62813). The data set is described as follows: Saturation binding of ^3 H-2-oxo-quazepam in rat cortex. The following applies: for non-specific binding: 0.5 nM. The method, then: as §1
Saturation binding studies were conducted utilizing ^3 H-2-oxo-quazepamin rat cortex over a range of concentrations from 0.1 to 30 nM. The separation between specific and non-specific binding indicated the suitability of ^3 H-2-oxo-quazepam as a radioligand for benzodiazepine sites. Specific binding was defined as the difference between total binding and binding in the presence of 100 nM unlabeled clonazepam. At a concentration of 0.5 nM, non-specific binding for the radioligand constituted only 5 to 10 percent of total binding.

Data set [3] has as its target T1, ^3 H-flunitrazepam binding sites in rat cerebellum (BZ-1) (Rattus norvegicus, UniProt P18508+P62813).
T1 construct: Cerebral cortex and cerebellum were dissected on ice and homogenized; tissue Charles River Breeding Laboratories (rats); host or cells: rat cerebellum synaptic membranes (washed P2 pellet)
Put plainly: ^3 H-flunitrazepam competition binding, rat cerebellum. As to the method: as §1, with “weight/ml. […]” for “weight/ml.”
Incubations were carried out at 0° C. for 90 minutes. […] Filter-bound radioactivity was quantified through liquid scintillation counting following overnight solubilization of the receptor-radioligand complex in "Scintosol" scintillation cocktail (Isolab, Inc.). […]

Data set [4] relates to benzodiazepine (BZ) receptors in brain. The following applies: literature; cited from earlier work.
Data set [5] concerns the target T2, ^3 H-2-oxo-quazepam binding sites (BZ-1 receptors) in rat cortex (Rattus norvegicus, UniProt P18508+P62813).
T2 construct: Cerebral cortex and cerebellum were dissected on ice and homogenized; tissue Charles River Breeding Laboratories (rats); host or cells: rat cerebral cortex synaptic membranes (washed P2 pellet)
The data set is described as follows: ^3 H-2-oxo-quazepam competition binding, rat cortex. The following applies: for best-fit curve model: vs ^3 H-2-oxo-quazepam 0.5 nM. As to the method: as §1, §2, §3, §4, §5

Data set [6] addresses T3, ^3 H-2-oxo-quazepam binding sites (BZ-1 receptors) in cerebellum (Rattus norvegicus, UniProt P18508+P62813).
T3 construct: Cerebral cortex and cerebellum were dissected on ice and homogenized; tissue Charles River Breeding Laboratories (rats); host or cells: rat cerebellum synaptic membranes (washed P2 pellet)
The data set is described as follows: ^3 H-2-oxo-quazepam competition binding, cerebellum. The method, then:
as §1, §2, §3
Compound assisted curve fitting was conducted on an Apple IIe computer using a program described in Br. J. Pharmacol., 80, 582P (1983) and Trends in Pharmaceutical Sci., 5, 47, (1984). […]

For data set [7] the following is noted: doses far above tranquilizing doses; cited from earlier work.
The conditions of data set [8]: cats; doses below those that caused ataxia; cited from earlier work.

With `O=C1CN=C(c2ccccc2F)c2cc(Cl)ccc2N1CC(F)(F)F` [2-oxo-quazepam, 7-chloro-1-(2,2,2-trifluoroethyl)-5-(2-fluorophenyl)-1,3-dihydro-2H-1,4 benzodiazepine-2-one], the “relative proportion of ^3 H-flunitrazepam binding sites, first-named subpopulation” value in data set [1] (rat cortex) was 55%. Further, in data set [1] (rat cortex), the “relative proportion of ^3 H-flunitrazepam binding sites, second-named subpopulation” value was 45%. Also, the “difference in binding affinity for two BZ receptors (BZ-1 and BZ-2)” value in data set [1] (rat cortex) amounted to 22 fold. For the same compound, the “populations of binding sites distinguished” value in data set [1] (rat cortex) was “distinguished two subpopulations”; in data set [3] (vs ^3 H-flunitrazepam, cerebellum), “did not distinguish subpopulations of binding sites”. The half-maximal inhibitory concentration (IC50) in data set [1] (vs ^3 H-flunitrazepam 0.5 nM, cortex, 0° C., 90 minutes, read-out: IC50, high affinity component) stood at 9.3 nM; in data set [3], 8.8 nM; in data set [5], 16.8 nM; in data set [6] it was 13.6 nM. Also, the non-specific binding in data set [2] is < 5%. Further, the “subpopulations of BZ receptors distinguished” value in data set [4] is “distinguish two subpopulations of benzodiazepine (BZ) receptors”. Besides, the “relative potency vs quazepam” value came out at 6 times in data set [5] (cortex, vs ^3 H-2-oxo-quazepam) and 19 times in data set [6] (cerebellum, vs ^3 H-2-oxo-quazepam). In addition, in data set [5] (low concentrations (0.5 nM)), the “BZ-1 selectivity of binding” value is given as “binds BZ-1 receptors almost exclusively”. Further, the best-fit curve model entry in data set [5] is given as “single site curve fitting model”. For the same compound, the “potency in cortex compared with cerebellum” value in data set [5] (vs ^3 H-2-oxo-quazepam, cortex and cerebellum) is recorded as “roughly equipotent”.
Take `[3H]C([3H])(N1C(=O)CN=C(c2ccccc2F)c2cc(Cl)ccc21)C(F)(F)F` [^3 H-2-oxo-quazepam, 7-Chloro-1-^3 H-(2,2,2-Trifluoroethyl)-5-(2-Fluorophenyl)-1,3-Dihydro-2H-1,4 Benzodiazepine-2-One]: the non-specific binding in data set [2] is reported as 5 to 10%. Besides, in data set [2] (0.1 to 30 nM, even after saturation of BZ-1 receptors), the “non-specific binding vs concentration” value was “linear relationship with increasing concentration”.
As to `CN1C(=O)CN=C(c2ccccc2F)c2cc([N+](=O)[O-])ccc21` [flunitrazepam, reference compound], the “receptor subtype specificity of binding” value in data set [1] (benzodiazepine receptors) is recorded as “binds non-specifically to benzodiazepine receptors”. The “populations of binding sites distinguished” value in data set [1] (rat cortex) is listed as “only a single uniform population of sites”.
In the case of `O=C1CN=C(c2ccccc2)c2cc(Cl)ccc2N1CC(F)(F)F` [halazepam], the ataxic effects entry in data set [7] is “only weak ataxic effects”.
For `Fc1ccccc1C1=NCC(=S)N(CC(F)(F)F)c2ccc(Cl)cc21` [quazepam, 7-chloro-1-(2,2,2-trifluorethyl)-5-(2-fluorophenyl)-1,3-dihydro-2H-1,4 benzodiazpeine-2-thione, reference compound], in data set [1] (rat cortex), the “difference in binding affinity for two BZ receptors (BZ-1 and BZ-2)” value turned out to be 54 fold; the “populations of binding sites distinguished” value was “distinguished two subpopulations”. In data set [5], the IC50 came out at 101 nM and the best-fit curve model entry is “single site curve fitting model”. This compound also showed an IC50 in data set [6] of 258 nM. In data set [8], the behavioural effect entry is “only drowsiness and sleep”.

Source of the values: patent US4997771A, “Method for measuring the BZ-1 receptor binding activity in a test sample or test compound” (Schering Corporation, priority 1987, dated 1991).
